Measured values from patent publication US9382254B2, “Compounds and pharmaceutical compositions thereof for the treatment of cystic fibrosis” (Galapagos NV, priority 2013, dated 2016).

Tests used:
Format in all cases: cell-based
[1] = molecular target: T1, CFTR ΔF508 mutant (Homo sapiens, UniProt P13569, DEL508-508); test: YFP-halide influx assay for the CFTR-ΔF508 mutation, gluconate buffer; conditions: CFBE41o- cells, forskolin 10.67 μM
T1 construct: expressed in transfected cells; host or cells: CFBE41o- (adenoviral transduction)
From the text: The YFP halide influx assay measures the functionality of the cystic fibrosis Transmembrane Conductance regulator (CFTR) channels in the cystic fibrosis bronchial epithelium cell line CFBE41o-. The assay is used to evaluate the capacity of compounds to increase the open probability of existing CFTR channels in the membrane. It makes use of the observation that the yellow fluorescent protein (YFP) variant YFP H148Q, I152L has its fluorescence substantially quenched by halide ions like Cl^− and I^−. (Galietta, Haggie, & Verkman, 2001) (Nagai, et al., 2002)
For this purpose, CFBE41o-cells are seeded in 96 well plates (6000 CFBE cells/well). One day after seeding, the CFBE cells are transduced with adenoviral vectors that direct the expression of the CFTR ΔF508 mutant and of the YFP reporter. Cells are incubated at 27° C., 5% CO2 for 24 hours so as to allow for the proper folding and migration to the membrane of the CFTR channel or treated with a CFTR modulator during 24 hours at 37° C.
The I^−-induced quenching of fluorescence is recorded immediately after injection of I^− for 7 seconds. The capacity of a compound to increase the channel opening is directly correlated with the decrease in fluorescence, and is expressed as (1-(fluorescence after 7 seconds (F)/fluorescence before injection (F0))) and an EC50 can be derived from a (1-F/F0) vs compound concentration plot.

[2] = molecular target: T1, CFTR ΔF508 mutant; test: YFP-halide influx assay for the CFTR-ΔF508 mutation (384 well, FDSS/μCell); conditions: CFBE41o- cells, CFTR-ΔF508, 1×D-PBS, fluorescence after 36 seconds
Method in brief: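 Potentiator read-out as 1−F/F0, F taken 36 s after iodide addition, EC50 fitted against compound concentration. Cells: CFBE41o- expressing ΔF508 CFTR plus halide-sensitive YFP via adenovirus, rescued by 27 °C for 24 h or 24 h modulator at 37 °C.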

[3] = molecular target: T2, CFTR G551D mutant (Homo sapiens, UniProt P13569, G551D); test: YFP-halide influx assay for the CFTR-G551D mutation; conditions: HEK293 cells, forskolin 10.67 μM
T2 construct: expressed in transfected cells; host or cells: HEK293 (reverse transfection with plasmid)
Method in brief: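 HEK293 cells reverse-transfected with CFTR G551D and YFP H148Q/I152L/F47L halide sensor, expressed 24 h at 37 °C. Iodide-induced fluorescence quench recorded 7 s after I− injection; response = 1−F/F0, with EC50 from plot against compound concentration.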

T1 sequence (P13569 with tags, fused parts or gaps DEL508-508): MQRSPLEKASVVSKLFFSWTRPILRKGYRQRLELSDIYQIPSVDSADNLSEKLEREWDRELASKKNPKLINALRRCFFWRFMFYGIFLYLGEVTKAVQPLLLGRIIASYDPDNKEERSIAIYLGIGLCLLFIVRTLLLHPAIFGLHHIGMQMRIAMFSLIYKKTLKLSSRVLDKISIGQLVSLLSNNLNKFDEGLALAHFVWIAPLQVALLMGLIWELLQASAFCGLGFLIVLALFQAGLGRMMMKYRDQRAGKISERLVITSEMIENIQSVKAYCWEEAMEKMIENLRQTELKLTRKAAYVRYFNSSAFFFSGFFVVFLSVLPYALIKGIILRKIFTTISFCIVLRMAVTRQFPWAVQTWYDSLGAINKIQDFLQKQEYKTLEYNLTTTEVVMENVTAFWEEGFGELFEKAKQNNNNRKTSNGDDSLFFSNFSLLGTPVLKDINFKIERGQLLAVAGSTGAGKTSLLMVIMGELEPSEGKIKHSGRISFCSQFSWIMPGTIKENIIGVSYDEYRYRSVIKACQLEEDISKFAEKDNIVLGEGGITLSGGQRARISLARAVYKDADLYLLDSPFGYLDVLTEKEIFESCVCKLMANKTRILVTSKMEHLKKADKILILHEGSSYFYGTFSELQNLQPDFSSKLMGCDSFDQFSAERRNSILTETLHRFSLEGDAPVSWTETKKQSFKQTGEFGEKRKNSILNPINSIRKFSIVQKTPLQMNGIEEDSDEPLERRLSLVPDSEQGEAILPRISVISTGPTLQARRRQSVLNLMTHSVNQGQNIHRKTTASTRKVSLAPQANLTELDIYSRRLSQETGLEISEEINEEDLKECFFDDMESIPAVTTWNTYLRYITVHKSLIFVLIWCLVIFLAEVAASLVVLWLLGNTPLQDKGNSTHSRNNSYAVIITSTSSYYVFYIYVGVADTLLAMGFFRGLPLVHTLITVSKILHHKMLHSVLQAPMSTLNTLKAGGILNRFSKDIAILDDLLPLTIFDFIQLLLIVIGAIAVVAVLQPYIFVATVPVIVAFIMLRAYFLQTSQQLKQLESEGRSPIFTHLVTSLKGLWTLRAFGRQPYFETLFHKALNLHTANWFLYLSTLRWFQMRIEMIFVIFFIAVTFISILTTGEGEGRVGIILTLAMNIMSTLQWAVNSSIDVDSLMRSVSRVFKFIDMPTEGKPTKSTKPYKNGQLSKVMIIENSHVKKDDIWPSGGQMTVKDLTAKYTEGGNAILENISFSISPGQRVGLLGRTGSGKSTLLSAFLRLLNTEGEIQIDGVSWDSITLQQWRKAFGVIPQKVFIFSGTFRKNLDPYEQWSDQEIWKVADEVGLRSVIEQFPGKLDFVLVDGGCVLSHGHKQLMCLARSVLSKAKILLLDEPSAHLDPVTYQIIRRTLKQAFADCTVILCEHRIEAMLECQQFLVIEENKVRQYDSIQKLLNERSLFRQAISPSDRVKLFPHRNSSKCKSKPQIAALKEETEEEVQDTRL
T2 sequence (P13569 whole entry G551D): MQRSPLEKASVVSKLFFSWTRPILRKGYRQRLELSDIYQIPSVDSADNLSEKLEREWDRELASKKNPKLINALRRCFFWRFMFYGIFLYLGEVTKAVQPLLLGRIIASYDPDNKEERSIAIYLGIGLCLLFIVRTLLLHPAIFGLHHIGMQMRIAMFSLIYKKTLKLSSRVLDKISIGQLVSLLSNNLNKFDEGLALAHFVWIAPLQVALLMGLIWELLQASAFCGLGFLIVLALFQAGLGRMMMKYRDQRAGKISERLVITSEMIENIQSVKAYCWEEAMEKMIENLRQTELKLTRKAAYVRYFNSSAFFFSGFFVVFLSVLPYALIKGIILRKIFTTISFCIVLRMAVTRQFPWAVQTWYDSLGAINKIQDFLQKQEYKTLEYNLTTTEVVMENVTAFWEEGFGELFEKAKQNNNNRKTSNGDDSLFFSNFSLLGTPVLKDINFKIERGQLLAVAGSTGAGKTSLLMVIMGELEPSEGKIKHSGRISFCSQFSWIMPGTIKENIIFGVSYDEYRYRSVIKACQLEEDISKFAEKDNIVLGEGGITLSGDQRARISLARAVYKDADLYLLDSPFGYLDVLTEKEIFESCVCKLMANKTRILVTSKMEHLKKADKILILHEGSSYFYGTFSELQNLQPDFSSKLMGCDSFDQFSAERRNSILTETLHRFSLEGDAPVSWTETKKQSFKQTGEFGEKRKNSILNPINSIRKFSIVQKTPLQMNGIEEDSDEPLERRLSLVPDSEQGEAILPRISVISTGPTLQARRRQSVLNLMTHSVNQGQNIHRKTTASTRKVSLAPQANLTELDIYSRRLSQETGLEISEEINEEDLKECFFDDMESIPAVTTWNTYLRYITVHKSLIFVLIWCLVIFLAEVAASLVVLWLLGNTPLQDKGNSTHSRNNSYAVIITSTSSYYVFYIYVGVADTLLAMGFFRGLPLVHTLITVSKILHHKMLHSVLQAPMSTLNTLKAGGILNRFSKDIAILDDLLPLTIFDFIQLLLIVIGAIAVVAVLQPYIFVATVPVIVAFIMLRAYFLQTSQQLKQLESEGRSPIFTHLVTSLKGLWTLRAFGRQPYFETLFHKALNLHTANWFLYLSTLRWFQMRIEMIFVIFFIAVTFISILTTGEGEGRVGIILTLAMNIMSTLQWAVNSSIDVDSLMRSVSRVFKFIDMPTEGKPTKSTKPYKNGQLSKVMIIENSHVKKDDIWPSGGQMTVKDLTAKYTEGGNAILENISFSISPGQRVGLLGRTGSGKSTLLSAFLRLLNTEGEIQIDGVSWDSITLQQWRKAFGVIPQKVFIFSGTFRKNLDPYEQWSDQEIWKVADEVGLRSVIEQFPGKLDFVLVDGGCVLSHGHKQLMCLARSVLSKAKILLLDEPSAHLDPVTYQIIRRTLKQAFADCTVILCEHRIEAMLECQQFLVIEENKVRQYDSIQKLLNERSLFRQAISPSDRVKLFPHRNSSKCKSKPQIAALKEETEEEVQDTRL

| SMILES | EC50 [1] [nM] | EC50 [2] [nM] | EC50 [3] [nM] | EC50 ([3]; class symbol) [nM] |
| --- | --- | --- | --- | --- |
| Cc1ccc(C(=O)Nc2sc(S(=O)(=O)N3CCCCC3)cc2C(N)=O)s1 [Compound 1, N-(3-carbamoyl-5-(piperidin-1-ylsulfonyl)thiophen-2-yl)-5-methylthiophene-2-carboxamidc] | 135 |  |  |  |
| NC(=O)c1cc(S(=O)(=O)N2CCCCC2)sc1NC(=O)c1cc2c(F)cccc2s1 [Compound 2, N-(3-carbamoyl-5-(piperidin-1-ylsulfonyl)thiophen-2-yl)-4-fluorobenzo[b] thiophene-2-carboxamide] | 483 |  |  |  |
| Cc1ccc(C(=O)Nc2sc(S(=O)(=O)N3CCN(C)CC3)cc2C(N)=O)s1 [Compound 5, N-(3-carbamoyl-5-(4-methylpiperazin-1-ylsulfonyl)thiophen-2-yl)-5-methylthiophene-2-carboxamide] | 944 |  |  |  |
| Cc1ccc(C(=O)Nc2sc(S(=O)(=O)N(C)Cc3ccccc3)cc2C(N)=O)s1 [Compound 6, N-(5-(N-benzyl-N-methylsulfamoyl)-3-carbamoylthiophen-2-yl)-5-methylthiophene-2-carboxamide] | 321 |  |  |  |
| Cc1ccc(C(=O)Nc2sc(S(=O)(=O)N(C)c3ccccc3)cc2C(N)=O)s1 [Compound 7, N-(3-carbamoyl-5-(N-methyl-N-phenylsulfamoyl)thiophen-2-yl)-5-methylthiophen-2-carboxamide] | 1080 |  |  |  |
| Cc1ccc(C(=O)Nc2sc(S(=O)(=O)N3Cc4ccccc4C3)cc2C(N)=O)s1 [Compound 8, N-(3-carbamoyl-5-(isoindolin-2-ylsulfonyl)thiophen-2-yl)-5-methylthiphen-2-carboxamide] | 646 |  |  |  |
| NC(=O)c1cc(S(=O)(=O)N2CCCCC2)sc1NC(=O)c1cc2c(s1)CCCC2 [Compound 9, N-(3-carbamoyl-5-(piperidin-1-ylsulfonyl)thiophen-2-yl)-4,5,6,7-tetrahydrobenzo[b] thiophene-2-carboxamide] | 603 |  |  |  |
| NC(=O)c1cc(S(=O)(=O)N2CCCCC2)sc1NC(=O)c1cc2ccccc2s1 [Compound 10, N-(3-carbamoyl-5-(piperidin-1-ylsulfonyl)thiophen-2-yl)benzo[b] thiophene-2-carboxamide] | 628 |  |  |  |
| N#Cc1cccc(C(=O)Nc2sc(S(=O)(=O)N3CCCCC3)cc2C(N)=O)c1 [Compound 11, 2-(3-cyanobenzamido)-5-(piperidin-1-ylsulfonyl) thiophene-3-carboxamide] | 568 |  |  |  |
| NC(=O)c1cc(S(=O)(=O)N2CCCCC2)sc1NC(=O)c1ccc2ncsc2c1 [Compound 12, N-(3-carbamoyl-5-(piperidin-1-ylsulfonyl)thiophen-2-yl)benzo[d] thiazole-6-carboxamide] | 887 |  |  |  |
| NC(=O)c1cc(S(=O)(=O)N2CCCCC2)sc1NC(=O)C1CCCC1 [Compound 13, 2-(cyclopentanecarboxamido)-5-(piperidin-1-ylsulfonyl)thiophene-3-carboxamide] | 401 |  |  |  |
| NC(=O)c1cc(S(=O)(=O)N2CCCCC2)sc1NC(=O)c1cccc(F)c1 [Compound 14, 2-(3-fluorobenzamido)-5-(piperidin-1-ylsulfonyl)thiophene-3-carboxamide] | 357 |  |  |  |
| Cc1ccc(C(=O)Nc2sc(S(=O)(=O)N(C)C)cc2C(N)=O)s1 [Compound 15, N-(3-carbamoyl-5-(N,N-dimethylsulfamoyl)thiophen-2-yl)-5-methylthiophene-2-carboxamide] | 169 |  |  |  |
| COc1ccc(S(=O)(=O)c2cc(C(N)=O)c(NC(=O)C(C)(C)O)s2)cc1 [Compound 400, 2-[(2-hydroxy-2-methyl-propanoyl)amino]-5-(4-methoxyphenyl)sulfonyl-thiophene-3-carboxamide] |  | 56.7 | 1950 |  |
| CC(O)C(=O)Nc1sc(S(=O)(=O)c2ccc(OC(F)F)cc2)cc1C(N)=O (stereo not drawn) [Compound 403, 5-[4-(difluoromethoxy)phenyl] sulfonyl-2-(2-hydroxypropanoylamino) thiophene-3-carboxamide] |  | 27.5 | 1610 |  |
| CC(C)(O)C(=O)Nc1sc(S(=O)(=O)c2ccc(C#N)cc2F)cc1C(N)=O [Compound 406, 5-(4-cyano-2-fluoro-phenyl)sulfonyl-2-[(2-hydroxy-2-methyl-propanoyl)amino] thiophene-3-carboxamide] |  | 56.1 | 1310 |  |
| CC(C)(O)C(=O)Nc1sc(S(=O)(=O)c2cccc(C#N)c2)cc1C(N)=O [Compound 409, 5-(3-cyanophenyl)sulfonyl-2-[(2-hydroxy-2-methyl-propanoyl)amino] thiophene-3-carboxamide] |  | 47.7 | 2370 |  |
| COc1c(Cl)ncnc1S(=O)(=O)c1cc(C(N)=O)c(NC(=O)C(C)(C)O)s1 [Compound 414, 5-(6-chloro-5-methoxy-pyrimidin-4-yl)sulfonyl-2-[(2-hydroxy-2-methyl-propanoyl)amino] thiophene-3-carboxamide] |  | 111 |  | > 1000 |
| COc1cnc(C(F)(F)F)nc1S(=O)(=O)c1cc(C(N)=O)c(NC(=O)C(C)(C)O)s1 [Compound 415, 2-[(2-hydroxy-2-methyl-propanoyl)amino]-5-[5-methoxy-2-(trifluoromethyl)pyrimidin-4-yl]sulfonyl-thiophene-3-carboxamide] |  | 305 |  | > 1000 |
| CC(C)(O)C(=O)Nc1sc(S(=O)(=O)c2nccnc2C(F)(F)F)cc1C(N)=O [Compound 417, 2-[(2-hydroxy-2-methyl-propanoyl)amino]-5-[3-(trifluoromethyl)pyrazin-2-yl]sulfonyl-thiophene-3-carboxamide] |  | 147 | 6660 |  |
| CC(C)(O)C(=O)Nc1sc(S(=O)(=O)c2cc(CC#N)cc(OC(F)(F)F)c2)cc1C(N)=O [Compound 428, 5-[3-(cyanomethyl)-5-(trifluoromethoxy)phenyl] sulfonyl-2-[(2-hydroxy-2-methyl-propanoyl)amino] thiophene-3-carboxamide] |  | 76.1 | 3330 |  |
| CC(C)(O)C(=O)Nc1sc(S(=O)(=O)c2ccc(C(F)(F)F)nn2)cc1C(N)=O [Compound 431, 2-[(2-hydroxy-2-methyl-propanoyl)amino]-5-[6-(trifluoromethyl)pyridazin-3-yl]sulfonyl-thiophene-3-carboxamide] |  | 150 | 2220 |  |
| CN1COCc2cc(S(=O)(=O)c3cc(C(N)=O)c(NC(=O)C(C)(C)O)s3)ccc21 [Compound 434, 2-[(2-hdyroxy-2-methyl-propanoyl)amino]-5-[(1-methyl-2,4-dihydro-3,1-benzoxazin-6-yl)sulfonyl] thiophene-3-carboxamide] |  | 227 | 1930 |  |
| CC(C)(O)C(=O)Nc1sc(S(=O)(=O)c2cccnc2C(F)(F)F)cc1C(N)=O [Compound 436, 2-[(2-hydroxy-2-methyl-propanoyl)amino]-5-[[2-(trifluoromethyl)-3-pyridyl]sulfonyl] thiophene-3-carboxamide] |  | 32.1 | 1730 |  |
| CC(C)(O)C(=O)Nc1sc(S(=O)(=O)c2nc(CO)ccc2C(F)(F)F)cc1C(N)=O [Compound 438, 2-[(2-hydroxy-2-methyl-propanoyl)amino]-5-[[6-(hydroxymethyl)-3-(trifluoromethyl)-2-pyridyl]sulfonyl] thiophene-3-carboxamide] |  | 216 |  | > 1000 |
| Cc1c(S(=O)(=O)c2ccc(C(F)(F)F)cc2F)sc(NC(=O)C(C)(C)O)c1C(N)=O [Compound 439, 5-[2-fluoro-4-(trifluoromethyl)phenyl]sulfonyl-2-[(2-hydroxy-2-methyl-propanoyl)amino]-4-methyl-thiophene-3-carboxamide] |  | 7.16 | 6660 |  |
| CC(C)(O)C(=O)Nc1sc(S(=O)(=O)c2cc(Cl)cnc2C(F)(F)F)cc1C(N)=O [Compound 440, 5-[[5-chloro-2-(trifluoromethyl)-3-pyridyl]sulfonyl]-2-[(2-hydroxy-2-methyl-propanoyl)amino] thiophene-3-carboxamide] |  | 13 | 2190 |  |
| NC(=O)c1cc(S(=O)(=O)c2ccc(OC(F)(F)F)cc2)sc1NC(=O)C1CCCO1 (stereo not drawn) [Compound 442, N-[3-carbamoyl-5-[4-(trifluoromethoxy)phenyl]sulfonyl-2-thienyl] tetrahydrofuran-2-carboxamide] |  | 90.9 | 3330 |  |
| NC(=O)c1cc(S(=O)(=O)c2ccc(OC(F)(F)F)cc2)sc1NC(=O)C1CCOC1 (stereo not drawn) [Compound 443, N-[3-carbamoyl-5-[4-(trifluoromethoxy)phenyl]sulfonyl-2-thienyl] tetrahydrofuran-3-carboxamide] |  | 107 | 3330 |  |
